Legend:
Set-up in all cases: scale not given here
ABUTH Velvetleaf [1] = assay: Postemergence herbicidal evaluation, ABUTH; assay type: in vivo, Abutilon theophrasti, Medic.; conditions: postemergence spray, rated about two-three weeks after treatment
Procedure, shortened: (§1)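 For this test, compound in an 80/20 acetone/water vehicle with 1.0% seed oil was sprayed over two-week-old seedlings at about 0.006 to 0.400 kg per hectare. Injury was assessed visually two to three weeks on.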

AMBEL Ragweed, Common [2] = assay: Postemergence herbicidal evaluation, AMBEL; assay type: in vivo, Ambrosia artemisifolia, L.; conditions: postemergence spray, rated about two-three weeks after treatment
Procedure, shortened: as §1

CASOB Sicklepod [3] = assay: Postemergence herbicidal evaluation, CASOB; assay type: in vivo, Cassia obtusifolia, L.; conditions: postemergence spray, rated about two-three weeks after treatment
Procedure, shortened: as §1

[4] = test system: CHEAL Lambsquarters, Common; assay: Postemergence herbicidal evaluation, CHEAL; assay type: in vivo, Chenopodium album, L.; conditions: postemergence spray, rated about two-three weeks after treatment
Procedure, shortened: as §1

ECHOG Barnyardgrass [5] = assay: Postemergence herbicidal evaluation, ECHOG; assay type: in vivo, Echinochloa crus-galli, (L.) Beau; conditions: postemergence spray, rated about two-three weeks after treatment
Procedure, shortened: as §1

GALAP Galium [6] = assay: Postemergence herbicidal evaluation, GALAP; assay type: in vivo, Galium aparine; conditions: postemergence spray, rated about two-three weeks after treatment
Procedure, shortened: as §1

[7] = test system: IPOHE Morningglory, Ivyleaf; assay: Postemergence herbicidal evaluation, IPOHE; assay type: in vivo, Ipomoea hederacea, (L.) Jacq.; conditions: postemergence spray, rated about two-three weeks after treatment
Procedure, shortened: as §1

SETVI Foxtail, Green [8] = assay: Postemergence herbicidal evaluation, SETVI; assay type: in vivo, Setaria viridis, (L.) Beau; conditions: postemergence spray, rated about two-three weeks after treatment
Procedure, shortened: as §1

GLXMAW Soybean, Williams [9] = assay: Postemergence herbicidal evaluation, GLXMAW; assay type: in vivo, Glycine max, (L.) Merr. cv Williams; conditions: postemergence spray, rated about two-three weeks after treatment
Procedure, shortened: as §1

[10] = test system: TRZAWR Wheat, Winter, cv Riband; assay: Postemergence herbicidal evaluation, TRZAWR; assay type: in vivo, Triticum aestivum; conditions: postemergence spray, rated about two-three weeks after treatment
Procedure, shortened: as §1

ORYSAT Rice, Tebonnet [11] = assay: Postemergence herbicidal evaluation, ORYSAT; assay type: in vivo, Oryza sativa, (L.); conditions: postemergence spray, rated about two-three weeks after treatment
Procedure, shortened: as §1

ZEAMX Corn, Field [12] = assay: Postemergence herbicidal evaluation, ZEAMX; assay type: in vivo, Zea mays, L. (Sammel-Bezeichnung); conditions: postemergence spray, rated about two-three weeks after treatment
Procedure, shortened: as §1

ABUTH Velvetleaf [13] = assay: Preemergence herbicidal evaluation, ABUTH; assay type: in vivo, Abutilon theophrasti, Medic.; conditions: preemergence
Procedure, shortened: (§2)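 Compound applied preemergence as an aqueous acetone spray onto freshly planted cups, dose equivalent approx. 0.013 to 0.800 kg/ha. Evaluation by rating at weeks 4–5.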

AMBEL Ragweed, Common [14] = assay: Preemergence herbicidal evaluation, AMBEL; assay type: in vivo, Ambrosia artemisifolia, L.; conditions: preemergence
Procedure, shortened: as §2

CASOB Sicklepod [15] = assay: Preemergence herbicidal evaluation, CASOB; assay type: in vivo, Cassia obtusifolia, L.; conditions: preemergence
Procedure, shortened: as §2

[16] = test system: CHEAL Lambsquarters, Common; assay: Preemergence herbicidal evaluation, CHEAL; assay type: in vivo, Chenopodium album, L.; conditions: preemergence
Procedure, shortened: as §2

ECHOG Barnyardgrass [17] = assay: Preemergence herbicidal evaluation, ECHOG; assay type: in vivo, Echinochloa crus-galli, (L.) Beau; conditions: preemergence
Procedure, shortened: as §2

GALAP Galium [18] = assay: Preemergence herbicidal evaluation, GALAP; assay type: in vivo, Galium aparine; conditions: preemergence
Procedure, shortened: as §2

[19] = test system: IPOHE Morningglory, Ivyleaf; assay: Preemergence herbicidal evaluation, IPOHE; assay type: in vivo, Ipomoea hederacea, (L.) Jacq.; conditions: preemergence
Procedure, shortened: as §2

SETVI Foxtail, Green [20] = assay: Preemergence herbicidal evaluation, SETVI; assay type: in vivo, Setaria viridis, (L.) Beau; conditions: preemergence
Procedure, shortened: as §2

GLXMAW Soybean, Williams [21] = assay: Preemergence herbicidal evaluation, GLXMAW; assay type: in vivo, Glycine max, (L.) Merr. cv Williams; conditions: preemergence
Procedure, shortened: as §2

[22] = test system: TRZAWR Wheat, Winter, cv Riband; assay: Preemergence herbicidal evaluation, TRZAWR; assay type: in vivo, Triticum aestivum; conditions: preemergence
Procedure, shortened: as §2

ORYSAT Rice, Tebonnet [23] = assay: Preemergence herbicidal evaluation, ORYSAT; assay type: in vivo, Oryza sativa, (L.); conditions: preemergence
Procedure, shortened: as §2

ZEAMX Corn, Field [24] = assay: Preemergence herbicidal evaluation, ZEAMX; assay type: in vivo, Zea mays, L. (Sammel-Bezeichnung); conditions: preemergence
Procedure, shortened: as §2

COc1ccc(Cl)cc1-n1nnc2cc(F)c(-n3c(=O)cc(C(F)(F)F)n(C)c3=O)cc21 [Example 30]
Postemergence herbicidal rating ABUTH (ABUTH Velvetleaf [1]; 0.008 kg/ha): 9.0
Postemergence herbicidal rating ABUTH (ABUTH Velvetleaf [1]; 0.016 kg/ha): 9.0
Postemergence herbicidal rating ABUTH (ABUTH Velvetleaf [1]; 0.032 kg/ha): 9.0
Postemergence herbicidal rating ABUTH (ABUTH Velvetleaf [1]; 0.062 kg/ha): 9.0
Postemergence herbicidal rating AMBEL (AMBEL Ragweed, Common [2]; 0.008 kg/ha): 9.0
Postemergence herbicidal rating AMBEL (AMBEL Ragweed, Common [2]; 0.016 kg/ha): 9.0
Postemergence herbicidal rating AMBEL (AMBEL Ragweed, Common [2]; 0.032 kg/ha): 9.0
Postemergence herbicidal rating AMBEL (AMBEL Ragweed, Common [2]; 0.062 kg/ha): 9.0
Postemergence herbicidal rating CASOB (CASOB Sicklepod [3]; 0.008 kg/ha): 3.0
Postemergence herbicidal rating CASOB (CASOB Sicklepod [3]; 0.016 kg/ha): 4.0
Postemergence herbicidal rating CASOB (CASOB Sicklepod [3]; 0.032 kg/ha): 7.0
Postemergence herbicidal rating CASOB (CASOB Sicklepod [3]; 0.062 kg/ha): 8.0
Postemergence herbicidal rating CHEAL ([4]; 0.008 kg/ha): 9.0
Postemergence herbicidal rating CHEAL ([4]; 0.016 kg/ha): 9.0
Postemergence herbicidal rating CHEAL ([4]; 0.032 kg/ha): 9.0
Postemergence herbicidal rating CHEAL ([4]; 0.062 kg/ha): 9.0
Postemergence herbicidal rating ECHCG (ECHOG Barnyardgrass [5]; 0.008 kg/ha): 2.0
Postemergence herbicidal rating ECHCG (ECHOG Barnyardgrass [5]; 0.016 kg/ha): 4.0
Postemergence herbicidal rating ECHCG (ECHOG Barnyardgrass [5]; 0.032 kg/ha): 4.0
Postemergence herbicidal rating ECHCG (ECHOG Barnyardgrass [5]; 0.062 kg/ha): 6.0
Postemergence herbicidal rating GALAP (GALAP Galium [6]; 0.008 kg/ha): 1.0
Postemergence herbicidal rating GALAP (GALAP Galium [6]; 0.016 kg/ha): 3.0
Postemergence herbicidal rating GALAP (GALAP Galium [6]; 0.032 kg/ha): 4.0
Postemergence herbicidal rating GALAP (GALAP Galium [6]; 0.062 kg/ha): 4.0
Postemergence herbicidal rating IPOHE ([7]; 0.008 kg/ha): 9.0
Postemergence herbicidal rating IPOHE ([7]; 0.016 kg/ha): 9.0
Postemergence herbicidal rating IPOHE ([7]; 0.032 kg/ha): 9.0
Postemergence herbicidal rating IPOHE ([7]; 0.062 kg/ha): 9.0
Postemergence herbicidal rating SETVI (SETVI Foxtail, Green [8]; 0.008 kg/ha): 7.0
Postemergence herbicidal rating SETVI (SETVI Foxtail, Green [8]; 0.016 kg/ha): 6.0
Postemergence herbicidal rating SETVI (SETVI Foxtail, Green [8]; 0.032 kg/ha): 9.0
Postemergence herbicidal rating SETVI (SETVI Foxtail, Green [8]; 0.062 kg/ha): 9.0
Postemergence herbicidal rating GLXMAW (GLXMAW Soybean, Williams [9]; 0.008 kg/ha): 6.5
Postemergence herbicidal rating GLXMAW (GLXMAW Soybean, Williams [9]; 0.016 kg/ha): 6.5
Postemergence herbicidal rating GLXMAW (GLXMAW Soybean, Williams [9]; 0.032 kg/ha): 8.0
Postemergence herbicidal rating GLXMAW (GLXMAW Soybean, Williams [9]; 0.062 kg/ha): 8.0
Postemergence herbicidal rating TRZAWR ([10]; 0.008 kg/ha): 3.5
Postemergence herbicidal rating TRZAWR ([10]; 0.016 kg/ha): 3.5
Postemergence herbicidal rating TRZAWR ([10]; 0.032 kg/ha): 4.0
Postemergence herbicidal rating TRZAWR ([10]; 0.062 kg/ha): 4.5
Postemergence herbicidal rating ORYSAT (ORYSAT Rice, Tebonnet [11]; 0.008 kg/ha): 3.5
Postemergence herbicidal rating ORYSAT (ORYSAT Rice, Tebonnet [11]; 0.016 kg/ha): 3.5
Postemergence herbicidal rating ORYSAT (ORYSAT Rice, Tebonnet [11]; 0.032 kg/ha): 4.0
Postemergence herbicidal rating ORYSAT (ORYSAT Rice, Tebonnet [11]; 0.062 kg/ha): 4.5
Postemergence herbicidal rating ZEAMX (ZEAMX Corn, Field [12]; 0.008 kg/ha): 4.5
Postemergence herbicidal rating ZEAMX (ZEAMX Corn, Field [12]; 0.016 kg/ha): 4.5
Postemergence herbicidal rating ZEAMX (ZEAMX Corn, Field [12]; 0.032 kg/ha): 5.0
Postemergence herbicidal rating ZEAMX (ZEAMX Corn, Field [12]; 0.062 kg/ha): 5.0
ABUTH herbicidal rating (ABUTH Velvetleaf [13]; rate 0.016 kg/ha): 0.0
ABUTH herbicidal rating (ABUTH Velvetleaf [13]; rate 0.125 kg/ha): 6.0
AMBEL herbicidal rating (AMBEL Ragweed, Common [14]; rate 0.016 kg/ha): 0.0
AMBEL herbicidal rating (AMBEL Ragweed, Common [14]; rate 0.032 kg/ha): 0.0
AMBEL herbicidal rating (AMBEL Ragweed, Common [14]; rate 0.062 kg/ha): 3.0
AMBEL herbicidal rating (AMBEL Ragweed, Common [14]; rate 0.125 kg/ha): 6.0
CASOB herbicidal rating (CASOB Sicklepod [15]; rate 0.016 kg/ha): 0.0
CASOB herbicidal rating (CASOB Sicklepod [15]; rate 0.032 kg/ha): 1.0
CASOB herbicidal rating (CASOB Sicklepod [15]; rate 0.062 kg/ha): 0.0
CASOB herbicidal rating (CASOB Sicklepod [15]; rate 0.125 kg/ha): 2.0
CHEAL herbicidal rating ([16]; rate 0.016 kg/ha): 9.0
CHEAL herbicidal rating ([16]; rate 0.032 kg/ha): 9.0
CHEAL herbicidal rating ([16]; rate 0.062 kg/ha): 9.0
CHEAL herbicidal rating ([16]; rate 0.125 kg/ha): 9.0
ECHCG herbicidal rating (ECHOG Barnyardgrass [17]; rate 0.016 kg/ha): 1.0
ECHCG herbicidal rating (ECHOG Barnyardgrass [17]; rate 0.032 kg/ha): 5.0
ECHCG herbicidal rating (ECHOG Barnyardgrass [17]; rate 0.062 kg/ha): 7.0
ECHCG herbicidal rating (ECHOG Barnyardgrass [17]; rate 0.125 kg/ha): 7.0
GALAP herbicidal rating (GALAP Galium [18]; rate 0.016 kg/ha): 2.0
GALAP herbicidal rating (GALAP Galium [18]; rate 0.032 kg/ha): 2.0
GALAP herbicidal rating (GALAP Galium [18]; rate 0.062 kg/ha): 3.0
GALAP herbicidal rating (GALAP Galium [18]; rate 0.125 kg/ha): 4.0
IPOHE herbicidal rating ([19]; rate 0.016 kg/ha): 0.0
IPOHE herbicidal rating ([19]; rate 0.032 kg/ha): 0.0
IPOHE herbicidal rating ([19]; rate 0.062 kg/ha): 4.0
IPOHE herbicidal rating ([19]; rate 0.125 kg/ha): 3.0
SETVI herbicidal rating (SETVI Foxtail, Green [20]; rate 0.016 kg/ha): 4.0
SETVI herbicidal rating (SETVI Foxtail, Green [20]; rate 0.032 kg/ha): 7.0
SETVI herbicidal rating (SETVI Foxtail, Green [20]; rate 0.062 kg/ha): 9.0
SETVI herbicidal rating (SETVI Foxtail, Green [20]; rate 0.125 kg/ha): 9.0
GLXMAW herbicidal rating (GLXMAW Soybean, Williams [21]; rate 0.016 kg/ha): 1.0
GLXMAW herbicidal rating (GLXMAW Soybean, Williams [21]; rate 0.032 kg/ha): 1.0
GLXMAW herbicidal rating (GLXMAW Soybean, Williams [21]; rate 0.062 kg/ha): 1.0
GLXMAW herbicidal rating (GLXMAW Soybean, Williams [21]; rate 0.125 kg/ha): 2.0
TRZAWR herbicidal rating ([22]; rate 0.016 kg/ha): 0.0
TRZAWR herbicidal rating ([22]; rate 0.032 kg/ha): 1.0
TRZAWR herbicidal rating ([22]; rate 0.062 kg/ha): 2.0
TRZAWR herbicidal rating ([22]; rate 0.125 kg/ha): 2.0
ORYSAT herbicidal rating (ORYSAT Rice, Tebonnet [23]; rate 0.016 kg/ha): 0.0
ORYSAT herbicidal rating (ORYSAT Rice, Tebonnet [23]; rate 0.032 kg/ha): 1.0
ORYSAT herbicidal rating (ORYSAT Rice, Tebonnet [23]; rate 0.062 kg/ha): 2.0
ORYSAT herbicidal rating (ORYSAT Rice, Tebonnet [23]; rate 0.125 kg/ha): 4.0
ZEAMX herbicidal rating (ZEAMX Corn, Field [24]; rate 0.016 kg/ha): 1.0
ZEAMX herbicidal rating (ZEAMX Corn, Field [24]; rate 0.032 kg/ha): 3.0
ZEAMX herbicidal rating (ZEAMX Corn, Field [24]; rate 0.062 kg/ha): 5.0
ZEAMX herbicidal rating (ZEAMX Corn, Field [24]; rate 0.125 kg/ha): 7.0

— patent US20020111274A1, “1-alkyl-3-[1-(substituted phenyl) benzotriazol-6-yl] uracils” (BASF Aktiengesellschaft, priority 2000, published 2002)
